Experiments:
PPARδ = target: T1, PPARδ (Homo sapiens, UniProt Q03181); assay: LanthaScreen TR-FRET competitive binding assay, PPARδ LBD; conditions: Cheng-Prusoff; read-out: Ki inhibition constant, PPARδ LBD
T1 construct: glutathione S-transferase (GST)-tagged human PPAR-LBD; purchased Fisher Scientific
T1 sequence (Q03181 211-439 limits assumed): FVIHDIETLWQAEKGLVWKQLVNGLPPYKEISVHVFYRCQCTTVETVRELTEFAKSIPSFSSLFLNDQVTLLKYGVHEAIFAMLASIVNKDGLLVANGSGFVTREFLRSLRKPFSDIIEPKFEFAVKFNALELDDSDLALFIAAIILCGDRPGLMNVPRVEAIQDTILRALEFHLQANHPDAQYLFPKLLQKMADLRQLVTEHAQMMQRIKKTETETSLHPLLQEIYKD
From the text: The peroxisome proliferator-activated receptors (PPARs), PPARα, PPARδ, and PPARγ are ligand-dependent transcription factors regulated by FAs, including MCFAs, which control expression of several key metabolism-associated genes. We thus characterized the binding and transcriptional activity of PBI-4547 to these receptors. A LanthaScreen TR-FRET competitive binding assay was used to determine the binding affinity of PBI-4547 in comparison to the full control agonists GW7647 (PPARα), GW0742 (PPARδ), and rosiglitazone (PPARγ).
The LanthaScreen time-resolved fluorescence resonance energy transfer (TR-FRET) PPARα, PPARδ and PPARγ competitive binding assay (Fisher Scientific) was performed according to the manufacturer’s protocol. […] The FRET signal was measured using an Infinite M1000 microplate reader by excitation at 332 nm and emission at 520 nm for fluorescein and 490 nm for terbium. Competitive ligand binding to PPAR is detected by a test compound’s ability to displace the Fluormone pan-PPAR Green from the LBD, which results in a decrease of the 520 nm/490 nm TR-FRET ratio. The inhibition constant (Ki) of the competitor ligand was calculated by applying the Cheng-Prusoff equation.

BDL rat = assay: Bile duct ligation (BDL)-induced liver fibrosis; format: in vivo
From the text: Since fibrosis contributes directly to the progression from NAFLD to NASH, we next evaluated the effect of PBI-4547 pro-fibrotic gene expression. […] Pro-inflammatory genes were not modulated by treatment with PBI-4547. […] As liver fibrosis was relatively mild in HFD-fed mice, we performed separate studies to evaluate the antifibrotic effect of PBI-4547, in rodent models of carbon tetrachloride (CCl4)- and bile duct ligation (BDL)-induced liver fibrosis.

PPARα = target: T2, PPARα (Homo sapiens, UniProt Q07869); assay: Cell-based GAL4 transactivation assay in HEK293 cells, PPARα LBD; conditions: HEK293, 24 h; read-out: EC50, PPARα transcriptional activity
T2 construct: human PPARα (S167–Y468); expressed in transfected cells; host or cells: HEK293
T2 sequence (Q07869 167-468): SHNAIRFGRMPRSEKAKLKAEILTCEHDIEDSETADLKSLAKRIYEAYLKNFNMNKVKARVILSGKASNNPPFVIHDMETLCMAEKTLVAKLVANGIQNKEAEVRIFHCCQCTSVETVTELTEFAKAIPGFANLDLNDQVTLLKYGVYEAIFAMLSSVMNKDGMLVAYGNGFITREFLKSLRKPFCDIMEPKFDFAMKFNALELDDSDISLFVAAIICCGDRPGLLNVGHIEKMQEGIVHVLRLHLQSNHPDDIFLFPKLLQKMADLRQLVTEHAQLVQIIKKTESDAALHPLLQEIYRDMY
From the text: To determine the transcriptional activity of PBI-4547, a cell-based GAL4 transactivation assay in HEK293 cells transfected with either PPARα, PPARδ, or PPARγ LBD was used. […] However, PBI-4547 only partially activated PPARγ transcriptional activity, with a relative maximal efficacy of 38% of the control agonist rosiglitazone.
Generation of the Gαi2, Gαq, and GPR40/β-arrestin-2 BRET biosensors have been described previously. A plasmid encoding the human GPR120-L (long isoform) cDNA was obtained from R&D Systems. GPR120-S (short isoform) was generated by replacing the BglII-BsgI fragment from GPR120-L by a gBlock gene fragment (Integrated DNA Technologies, Coralville, IA) lacking the DNA sequence corresponding to the extra 16 amino acids found in the third intracellular loop of the long form. The GPR120-GFP10 construct was generated by inserting PCR-amplified GPR120-S (without its stop codon) in place of GPR40 in the GPR40-GFP10 plasmid. […]
HEK293 cells were co-transfected with pGL4.35[luc2P/9XGAL4UAS/Hygro] and GAL4-PPAR-Rluc plasmids, and after 24 h of incubation were treated with compounds for 24 h. Luciferase activity was determined with the Dual Glo luciferase assay (Promega). Firefly luminescence was normalized to the constitutively expressed Renilla luminescence, and results expressed as fold induction of vehicle control.

## CCCCCc1cc(CCCCC)cc(CC(=O)[O-])c1.[Na+] [PBI-4547, 2-[3,5-dipentylphenyl]acetate sodium salt]
PPARδ
  Ki: 3.16 µM
BDL rat
  liver collagen deposition: significantly decreased
PPARα
  EC50: 42 µM
